# Experimental data reported in patent publication US20140357512A1, “HISTONE DEACETYLASE (HDAC) BIOMARKERS IN MULTIPLE MYELOMA” (priority 2013, published 2014).
# Test system: human myeloma cell line MM.1S
# Assay: SILAC acetylated-lysine peptide profiling, HDAC inhibitor vs DMSO (light/heavy ratio)
# Assay type: cell-based
# From the text: An embodiment of the invention comprises utilizing the SILAC method in order to quantitate changes in protein expression between two or more populations of cells. The SILAC method is a technique based on mass spectrometry that detects differences in protein abundance among samples using non-radioactive isotopic labeling. The SILAC method is known in the art, and described in detail in Ong et al., “Stable Isotope Labeling by Amino Acids in Cell Culture, SILAC, as a Simple and Accurate Approach to Expression Proteomics”, Molecular & Cellular Proteomics, vol. 1, pp. 376-386 (2002), which is incorporated herein by reference in its entirety.
# Briefly, the SILAC method involves growing two populations of cells in cell culture. The first population of cells is grown in growth media containing normal amino acids (“normal media”). The second population of cells is grown in media lacking a standard essential amino acid (such as lysine), but is then supplemented with a non-radioactive, isotopically labeled form of that essential amino acid (such as lysine labeled with ^13C atoms, rather than normal ^12C atoms), which is called “heavy media”. When the two populations of cells are each growing in the medium, they incorporate the amino acids into all of their proteins. The growth of cells maintained in the heavy media is no different from that in normal media. All peptides containing the heavy amino acids are heavier than their normal counterparts. The cells from each of the two populations of cells are lysed. The lysates from each of the two cell populations are then combined. The combined cell lysates are then analyzed by mass spectrometry. Pairs of chemically identical peptides of different stable isotope composition can be differentiated in a mass spectrometer due to their difference in mass. The ratio of peak intensities in the mass spectrum for such peptide pairs reflects the abundance ratio for the two proteins.
# This example describes SILAC studies that were performed to compare the effects of three different HDAC inhibitors (Compound A, Compound B, and tubastatin A) to a control on a human multiple myeloma cell line. The HDAC inhibitors were also compared amongst themselves to determine differences in their effects.
# A human myeloma cell line MM.1S was grown using either ^12C (light) or ^13C (heavy) lysine containing culture medium. The “heavy” cells were treated with DMSO as the control, and the “light” cells were treated with a single HDAC inhibitor at 37° C. for 6 hours. The heavy and light cells were lysed, and the lysates were mixed in 1:1 ratio and digested with the protease trypsin. The acetylated lysine containing peptides (due to the action of the HDAC inhibitor) in the digested peptide pool were captured by a non-specific anti-acetylated lysine antibody cocktail (the antibodies identify both light and heavy acetylated peptides), and subjected to mass spectrometry analysis in order to identify thousands of individual peptides.
# Thousands of peptides were identified in pairs (^12C and ^13C) due to their known mass differences. The amino acid sequence and quantitative ratio (Light/Heavy) of a given peptide in two differentially treated cell lysates were then determined and annotated with their possible protein (gene) sources.
# As stated above, three HDAC inhibitors (Compound A, Compound B, and Tubastatin A) were used. Thus, the SILAC method was performed three times, with a different HDAC inhibitor compared to a control each time. Accordingly, there are three pairs of quantitative data in the table below, i.e., Compound A:DMSO, Compound B:DMSO, and Tubastatin A:DMSO. A cut-off of 1.30 fold of change (increase or decrease) was then used to determine “changed” or “+” in the table, and any peptides with a fold of change less than 1.3 fold were determined to be “unchanged” or “0” in the table. Those peptides that were not identified were marked as “NA” in the table. […]
structure (smiles),measurement,setting,value
"O=C(CCCCCCNC(=O)c1cnc(N(c2ccccc2)c2ccccc2)nc1)NO [Compound A, 2-(diphenylamino)-N-(7-(hydroxyamino)-7-oxoheptyl)pyrimidine-5-carboxamide]",L/H ratio of acetylated peptide FIK(ac)IDGK,"SEQ ID NO: 660, 40S ribosomal protein S4 X isoform [71], RPS4X",0.57 log 2
same,L/H ratio of acetylated peptide LAMVK(ac)AEPDVK,"SEQ ID NO: 661, NADH dehydrogenase [ubiquinone] 1 alpha subcomplex subunit 5 [60], NDUFA5",0.58 log 2
same,L/H ratio of acetylated peptide NEK(ac)LFYR,"SEQ ID NO: 662, NADP-dependent malic enzyme mitochondrial [119], ME3",0.58 log 2
same,L/H ratio of acetylated peptide K(ac)FVCPECSK,"SEQ ID NO: 663, Isoform 1 of Transcription factor Sp3 [680], SP3",0.58 log 2
same,L/H ratio of acetylated peptide DLSLDDFK(ac)GK,"SEQ ID NO: 664, Thioredoxin-dependent peroxide reductase mitochondrial [91], PRDX3",0.58 log 2
same,L/H ratio of acetylated peptide DLTDYLMK(ac)ILTER,"SEQ ID NO: 665, Beta-actin-like protein 2 [192], ACTBL2",0.58 log 2
same,L/H ratio of acetylated peptide HGASPELQK(ac)QIR,"SEQ ID NO: 666, Peroxisomal membrane protein 11B [43], PEX11B",0.58 log 2
same,L/H ratio of acetylated peptide LNQLK(ac)PGLQYK,"SEQ ID NO: 667, Isoform 5 of Interleukin enhancer-binding factor 3 [413], ILF3",0.59 log 2
same,L/H ratio of acetylated peptide ISK(ac)LYGDLK,"SEQ ID NO: 668, cDNA FLJ61478 highly similar to Succinate dehydrogenase (ubiquinone) flavoprotein subunit mitochondrial [541], SDHA",0.59 log 2
same,L/H ratio of acetylated peptide LTSDDVK(ac)EQIYK,"SEQ ID NO: 669, 40S ribosomal protein S13 [34], RPS13",0.60 log 2
same,L/H ratio of acetylated peptide SCNCLLLK(ac)[…],"SEQ ID NO: 670, Isoform alpha-enolase of Alpha-enolase [343], ENO1",0.60 log 2
same,L/H ratio of acetylated peptide […](ac)FLIK,"SEQ ID NO: 671, Methyltransferase-like protein 7A [105], METTL7A",0.60 log 2
same,L/H ratio of acetylated peptide […](ac)QLK,"SEQ ID NO: 672, Annexin A6 [442], ANXA6",0.60 log 2
same,L/H ratio of acetylated peptide EVK(ac)LLLLGAGESGK,"SEQ ID NO: 673, Guanine nucleotide-binding protein G(k) subunit alpha [35], GNAI3",0.60 log 2
same,L/H ratio of acetylated peptide […](ac)LR,"SEQ ID NO: 674, Isoform 1 of Vesicle-associated membrane protein-associated protein A [125], VAPA",0.60 log 2
same,L/H ratio of acetylated peptide YNWSAK(ac)AK,"SEQ ID NO: 675, 60S ribosomal protein L37 [52], RPL37",0.60 log 2
same,L/H ratio of acetylated peptide GNK(ac)PWISLPR,"SEQ ID NO: 676, 40S ribosomal protein S4 X isoform [233], RPS4X",0.60 log 2
same,L/H ratio of acetylated peptide […](ac)NK,"SEQ ID NO: 677, Isoform Long of ES1 protein homolog mitochondrial [233], C21orf33",0.61 log 2
same,L/H ratio of acetylated peptide LENDK(ac)SFR,"SEQ ID NO: 678, Isoform 1 of Enoyl-CoA delta isomerase 1 mitochondrial [89], ECI1",0.61 log 2
same,L/H ratio of acetylated peptide LVAMK(ac)FLR,"SEQ ID NO: 679, Isoform 1 of Nucleoside diphosphate kinase B [39], NME1, NME2, NME1-NME2",0.61 log 2
same,L/H ratio of acetylated peptide KVPFGK(ac)TYCCDLK,"SEQ ID NO: 680, Mitochondrial carrier homolog 2 [293], MTCH2",0.62 log 2
same,L/H ratio of acetylated peptide TK(ac)[…],"SEQ ID NO: 681, Isoform 1 of Structural maintenance of chromosomes protein 2 [1160], SMC2",0.62 log 2
same,L/H ratio of acetylated peptide LAQLEEAK(ac)[…],"SEQ ID NO: 682, ATP synthase subunit b mitochondrial [139], ATP5F1",0.63 log 2
same,L/H ratio of acetylated peptide IPVPVQK(ac)NIDQQIK,"SEQ ID NO: 683, Isoform 1 of Pre-mRNA-splicing factor 38B [227], PRPF38B",0.64 log 2
same,L/H ratio of acetylated peptide […](ac)K,"SEQ ID NO: 684, Protein disulfide-isomerase [207], P4HB",0.64 log 2
same,L/H ratio of acetylated peptide VDIRPQLLK(ac)NALQR,"SEQ ID NO: 685, Isoform 1 of Heterochromatin protein 1-binding protein 3 [302], HP1BP3",0.64 log 2
same,L/H ratio of acetylated peptide NQK(ac)LTATTQK,"SEQ ID NO: 686, Nucleoprotein TPR [748], TPR",0.64 log 2
same,L/H ratio of acetylated peptide YYK(ac)NIGLGFK,"SEQ ID NO: 687, 40S ribosomal protein S11 [38], RPS11",0.65 log 2
same,L/H ratio of acetylated peptide SGK(ac)YDLDFK,"SEQ ID NO: 688, Isoform alpha-enolase of Alpha-enolase [256], ENO1",0.65 log 2
same,L/H ratio of acetylated peptide LYGDLK(ac)HLK,"SEQ ID NO: 689, cDNA FLJ61478 highly similar to Succinate dehydrogenase (ubiquinone) flavoprotein subunit mitochondrial [547], SDHA",0.65 log 2
same,L/H ratio of acetylated peptide VENEAEK(ac)DLQCHAPVR,"SEQ ID NO: 690, Isoform 1 of Bromodomain-containing protein 7 [103], BRD7",0.65 log 2
same,L/H ratio of acetylated peptide DSLYK(ac)[…],"SEQ ID NO: 691, Isoform 1 of Clathrin heavy chain 1 [1535], CLTC",0.65 log 2
same,L/H ratio of acetylated peptide TISAK(ac)YAEER,"SEQ ID NO: 692, Isoform 1 of Myosin-9 [1459], MYH9",0.65 log 2
same,L/H ratio of acetylated peptide (ac)ASNK(ac)TTLQK,"SEQ ID NO: 693, Chromobox protein homolog 3 [5], CBX3",0.66 log 2
same,L/H ratio of acetylated peptide GYLADPAK(ac)FPEAR,"SEQ ID NO: 694, 39S ribosomal protein L15 mitochondrial [228], MRPL15",0.66 log 2
same,L/H ratio of acetylated peptide SCEIK(ac)FLTFK,"SEQ ID NO: 695, Isoform 2 of 39S ribosomal protein L39 mitochondrial [126], MRPL39",0.66 log 2
